pEC50, pKd: −log10 of the molar value.
Key:
hSTING-R232 = target: T1, hSTING-R232 (Homo sapiens, UniProt Q86WV6, H232R); experiment: ISG reporter induction in 293-Dual hSTING-R232 reporter cells (QUANTI-Blue); type: cell-based; settings: 293-Dual hSTING-R232 cells, overnight incubation
T1 construct: host or cells: 293-Dual (HEK293-derived) reporter cells
Procedure: (§1) Certain STING compounds of the disclosure were evaluated in an in vitro cell based assay.
(§2) 293-Dual hSTING-R232 and mSTING cells (Invivogen) were seeded at 25,000 cells/well (50 ul) and co-cultured with STING agonists (2× concentration, 50 ul) in clear, half-area, 96-well polystyrene plates. Cells and test samples were prepared in DMEM supplemented with 10% FBS, Glutamax, and PenStrep. After overnight incubation at 37 C in a CO2 incubator, 20 ul of supernatant was added to QUANTI-Blue detection reagent (Invivogen). After one hour incubation at 37 C, plates were read at 640/650 nm on EnVision plate reader (PerkinElmer). OD values were plotted by log(agonist) vs. response, variable slope, four parameter curve fit (Log transform) using GraphPad Prism software to determine EC50 values.

mSTING = target: T2, mSTING (Mus musculus, UniProt Q3TBT3); experiment: ISG reporter induction in 293-Dual mSTING reporter cells (QUANTI-Blue); type: cell-based; settings: 293-Dual mSTING cells, overnight incubation
T2 construct: host or cells: 293-Dual (HEK293-derived) reporter cells
T2 sequence (Q3TBT3 1-378): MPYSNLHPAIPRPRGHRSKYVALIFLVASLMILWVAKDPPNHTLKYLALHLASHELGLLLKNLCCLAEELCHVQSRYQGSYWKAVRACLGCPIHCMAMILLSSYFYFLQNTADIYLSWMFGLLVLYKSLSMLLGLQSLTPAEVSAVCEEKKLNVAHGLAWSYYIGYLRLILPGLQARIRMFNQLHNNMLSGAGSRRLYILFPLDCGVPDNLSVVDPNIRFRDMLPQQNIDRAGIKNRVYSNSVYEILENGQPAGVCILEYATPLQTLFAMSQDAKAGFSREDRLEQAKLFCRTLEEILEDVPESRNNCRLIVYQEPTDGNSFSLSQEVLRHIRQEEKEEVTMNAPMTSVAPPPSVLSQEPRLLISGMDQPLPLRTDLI
Procedure: as §1, §2

hSTING WT [1] = target: T3, hSTING WT (Homo sapiens, UniProt Q86WV6); experiment: Thermal shift assay (DSF); type: binding; design: unit not given here; settings: compound at 3.12 uM
From the text: Thermal shift assay experimental methods were followed based on the published methods described in Ramanjulu et al. Nature, 2018, 564, 439.

hSTING WT [2] = target: T3, hSTING WT; experiment: Surface plasmon resonance assay; type: binding; settings: read-out: hSTING WT SPR (Kd)
Procedure: Surface plasmon resonance assay experimental methods were followed based on the published methods described in Pan et al., Science, 2020 369, eaba6098. (“A” means EC50≤20 nM).

T3 sequence (Q86WV6 155-341 H232R limits assumed): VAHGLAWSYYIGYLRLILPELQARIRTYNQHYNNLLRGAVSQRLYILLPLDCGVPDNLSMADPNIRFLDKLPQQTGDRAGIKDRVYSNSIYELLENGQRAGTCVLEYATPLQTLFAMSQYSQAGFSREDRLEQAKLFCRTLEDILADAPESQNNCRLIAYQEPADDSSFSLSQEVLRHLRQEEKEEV
T1 sequence (Q86WV6 whole entry H232R): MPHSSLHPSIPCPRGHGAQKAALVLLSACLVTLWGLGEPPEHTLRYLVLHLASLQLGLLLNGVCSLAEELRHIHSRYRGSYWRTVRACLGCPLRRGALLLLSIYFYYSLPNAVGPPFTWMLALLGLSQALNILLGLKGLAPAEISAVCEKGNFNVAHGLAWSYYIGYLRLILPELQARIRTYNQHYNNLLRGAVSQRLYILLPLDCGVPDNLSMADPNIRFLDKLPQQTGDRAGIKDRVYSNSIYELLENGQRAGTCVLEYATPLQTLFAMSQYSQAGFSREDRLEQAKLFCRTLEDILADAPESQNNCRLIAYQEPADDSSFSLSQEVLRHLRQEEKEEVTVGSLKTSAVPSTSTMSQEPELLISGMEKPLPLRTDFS

Compound: COc1cc2sc(C(=O)CC(C)(C)C(=O)O)cc2c(F)c1OCCCOc1c(OC)cc2sc(C(=O)CP(=O)(O)O)cc2c1F [Compound 6, 4-(4-Fluoro-5-(3-((4-fluoro-6-methoxy-2-(2-phosphonoacetyl)benzo[b]thiophen-5-yl)oxy)propoxy)-6-methoxybenzo[b]thiophen-2-yl)-2,2-dimethyl-4-oxobutanoic acid]
- pEC50 (hSTING-R232): ≥ 7.30
- pEC50 (mSTING): ≥ 7.30
- hSTING WT DSF (delta TmD @ 3.12 uM) (hSTING WT [1]): 20
- pKd (hSTING WT [2]): ≥ 7.70

Reference: US20250361253A1, “STING AGONIST COMPOUNDS” (Sutro Biopharma, Inc., priority 2022, published 2025)
